From patent US4427582A, “Antimicrobial disulfide prodrugs” (SmithKline Beckman Corporation, priority 1982, dated 1984)
Where a SMILES comes first, the peptide text is derived from it. The star is where a group is joined. SPy = c1ccc(S*)nc1

What was measured:
Fungal = Fungal activity in vitro, prodrug compared with non-latentiated warhead; format: cell-based
Description: (§1) For example, disk activity against Candida albicans β311 for the prodrug was 0.04 minimal inhibitory concentration with 0.01 for the warhead alone.

Candida albicans β311 = experiment: Disk activity against Candida albicans β311; format: cell-based
Description: as §1

E. coli CB64recA/F'123 = experiment: Disc assay for inhibition on seeded agar plates (zones of inhibition after overnight incubation); format: cell-based, Escherichia coli; set-up: unit not given here; settings: for Zones of inhibition diameter: section C
Experimental: The medium was that of Davis and Mingioli, supplemented with 4 μg/ml of thiamine and 50 μg/ml of required amino acid supplements with 1.5% agar for solid media. Seeded agar plates contained 0.1 ml of an overnight culture per 20 ml of molten agar (kept at 49°) containing appropriate supplements.
[…] of test solution was added to 1/4" diameter paper discs and the discs placed on the surface of agar plates which were incubated overnight at 37°. The bacterial strains of E. coli, whose strains are given hereafter, were obtained from the E. coli Genetic Stock Center.
Zones of inhibition on seeded agar plates after overnight incubation.

[1] = 200 nmol per disc, overnight incubation
[2] = 800 nmol per disc, overnight incubation
[3] = 800 nmol per disc, overnight incubation, section B

L-alanyl-β-L-alanyl N-oxy 2-pyridyl disulfide
potential for irritation relative to 2-mercaptopyridyl-1-one (Potential for irritation): lower potential for irritation
activity in vitro relative to 2-mercaptopyridyl-1-one in non-latentiated form (Fungal): generally less activity
minimal inhibitory concentration (disk activity) (Candida albicans β311): 0.04

C[C@H](NC(=O)C(N)CCCN)C(=O)N[C@@H](CSSCCNc1cc(C(=O)O)nc(C(=O)O)c1)C(=O)O (stereo partly drawn) [Orn--L-Ala--L-Ala--S--MEPDA]
Zones of inhibition diameter (E. coli CB64recA/F'123; [1]): 10
Zones of inhibition diameter (E. coli CB64recA/F'123; [2]): 12

C[C@H](N)C(=O)N[C@@H](C)C(=O)N[C@@H](CSSc1ccccn1)C(=O)O [L-ala- L-Ala--L-ala- S--2MP, L-alanyl-L-alanyl-β-L-alanyl 2-pyridyl disulfide] (H-Ala-Ala-Cys(SPy)-OH)
Zone of inhibition diameter (E. coli CB64recA/F'123; 40 nmol per disc, overnight incubation, section B): ( )
Zone of inhibition diameter (E. coli CB64recA/F'123; 200 nmol per disc, overnight incubation, section B): 14
Zone of inhibition diameter (E. coli CB64recA/F'123; [3]): 25

[O-][n+]1ccccc1S [2-mercaptopyridyl-1-one, reference compound]
minimal inhibitory concentration (disk activity) (Candida albicans β311): 0.01

C[C@H](N)C(=O)N[C@@H](C)C(=O)N[C@@H](CSSCCNc1cc(C(=O)O)nc(C(=O)O)c1)C(=O)O [L-Ala--L-Ala--L-Ala--S--MEPDA, L-alanyl-L-alanyl-β-L-alanyl 2-(2,6-dicarboxy-pyridyl-4)-aminoethyl disulfide]
Zone of inhibition diameter (E. coli CB64recA/F'123; 30 nmol, tripeptide alone, section D): 11
Zones of inhibition diameter (E. coli CB64recA/F'123; 40 nmol per disc, overnight incubation): 9
Zone of inhibition diameter (E. coli CB64recA/F'123; 60 nmol, tripeptide alone, section D): 15
Zones of inhibition diameter (E. coli CB64recA/F'123; [1]): 16
Zones of inhibition diameter (E. coli CB64recA/F'123; [2]): 24

NCCCC(N)C(=O)NC(CSSCCNc1cc(C(=O)O)nc(C(=O)O)c1)C(=O)O [Orn--L-Ala--S--MEPDA]
Zones of inhibition diameter (E. coli CB64recA/F'123; 250-500 nmol per disc, overnight incubation): 13

C[C@H](N)C(=O)N[C@@H](CSSc1ccccn1)C(=O)O [L-Ala--L-Ala--S--2MP, L-alanyl-β-L-alanyl 2-pyridyl disulfide] (H-Ala-Cys(SPy)-OH)
Zone of inhibition diameter (E. coli CB64recA/F'123; [3]): 15
